Laboratory results taken from ChEMBL document CHEMBL1124402, “Potent angiotensin II antagonists with non-beta-branched amino acids in position 5” (1989).
Numbered stars: 1 amine (or outer) side, 2 acyl side, 3 side chain; on linkers, the order of the positions; unused ones are H or OH. Square brackets hold non-standard residues; d marks the D form. Peptide text beside a SMILES is read from it. X1 = CC(c1ccccc1)[C@H](N[*:1])C(=O)[*:2]; Thz(5,5-Me2) = CC1(C)SCN[C@@H]1C(=O)O; dThz(5,5-Me2) = CC1(C)SCN[C@H]1C(=O)O; Gly(cPent) = N[C@H](C(=O)O)C1CCCC1; hPhe = N[C@@H](CCc1ccccc1)C(=O)O; Chg = N[C@H](C(=O)O)C1CCCCC1; Pen = CC(C)(S)[C@H](N)C(=O)O; Nle = CCCC[C@H](N)C(=O)O; Abu = CC[C@H](N)C(=O)O; Sar = CNCC(=O)O

Tests used:
Oryctolagus cuniculus [1] = organism: Oryctolagus cuniculus; assay: In vitro antagonist activity was measured in rabbit aorta assay as pA2
Rattus norvegicus [2] = assay: In vivo antagonistic activity was measured in the rat blood pressure assay; assay type: functional
Rattus norvegicus [3] = assay: In vivo angiotensin II like activity determined in rat blood pressure assay measured as increase in BP by 1 ug iv of compound; assay type: functional
[4] = biological target: Type-1 angiotensin II receptor (Oryctolagus cuniculus) (UniProt P34976); assay: In vitro antagonist activity of compound towards angiotensin II like was measured in rabbit aorta assay; details: target entry is the homologue from another species
Rattus norvegicus [5] = assay: (§1) In vivo angiotensin II like activity expressed in rat blood pressure assay measured as increase in BP by 1 ug bolus intravenous injection of compound; assay type: functional
Oryctolagus cuniculus [6] = organism: Oryctolagus cuniculus; assay: In vitro antagonist activity of compound towards angiotensin II like was measured in rabbit aorta assay; assay type: functional
Rattus norvegicus [7] = assay: In vivo inhibitory activity against Residual angiotensin II in the rat blood pressure; assay type: functional
[8] = biological target: T1, Type-2 angiotensin II receptor (Rattus norvegicus) (UniProt P35351); assay: as §1; assay type: functional, organism-based
T1 sequence (whole entry): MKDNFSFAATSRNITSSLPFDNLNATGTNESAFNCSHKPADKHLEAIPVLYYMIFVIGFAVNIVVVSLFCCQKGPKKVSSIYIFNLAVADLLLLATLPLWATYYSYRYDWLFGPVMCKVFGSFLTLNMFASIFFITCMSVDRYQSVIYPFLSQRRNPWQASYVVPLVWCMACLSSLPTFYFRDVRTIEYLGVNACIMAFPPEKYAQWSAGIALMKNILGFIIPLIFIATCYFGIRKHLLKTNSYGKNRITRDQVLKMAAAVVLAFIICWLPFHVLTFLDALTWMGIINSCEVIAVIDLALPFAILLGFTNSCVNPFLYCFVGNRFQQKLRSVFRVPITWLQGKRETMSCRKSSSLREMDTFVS

Rattus norvegicus [9] = assay: In vivo residual angiotensin II like activity in an rat blood pressure assay; assay type: functional; set-up: concentration or dose not given beside the values
[10] = biological target: Type-1 angiotensin II receptor (Oryctolagus cuniculus) (UniProt P34976); assay: In vitro antagonist activity of compound towards angiotensin II like was measured in a rabbit aorta assay; details: target entry is the homologue from another species
Oryctolagus cuniculus [11] = organism: Oryctolagus cuniculus; assay: pA2 value was evaluated in rabbit aorta assay; assay type: functional
Rattus norvegicus [12] = assay: In vivo residual angiotensin II like activity in rat blood pressure assay; assay type: functional

Type-1 angiotensin II receptor (Oryctolagus cuniculus), sequence (P34976 whole entry, looked up): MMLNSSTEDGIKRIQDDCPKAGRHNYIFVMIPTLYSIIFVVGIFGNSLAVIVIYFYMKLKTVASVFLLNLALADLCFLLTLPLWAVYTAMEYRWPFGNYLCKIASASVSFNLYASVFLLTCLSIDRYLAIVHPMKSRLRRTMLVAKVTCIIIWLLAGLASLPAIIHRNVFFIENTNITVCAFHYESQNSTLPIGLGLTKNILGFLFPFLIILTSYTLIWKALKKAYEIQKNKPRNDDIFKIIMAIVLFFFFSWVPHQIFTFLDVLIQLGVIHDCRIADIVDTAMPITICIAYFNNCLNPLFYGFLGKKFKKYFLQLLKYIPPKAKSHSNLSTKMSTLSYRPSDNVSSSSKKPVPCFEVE

| Compound | ID50 (Rattus norvegicus [2]) [ng min-1 rat-1] | BP (Rattus norvegicus [3]) [mmHg] | Activity (Rattus norvegicus [9]) [%] | further results |
| --- | --- | --- | --- | --- |
| CC[C@H](C)[C@H](NC(=O)[C@@H]1CCCN1C(=O)[C@H](Cc1c[nH]cn1)NC(=O)[C@H](Cc1c[nH]c2ccccc12)NC(=O)[C@H](Cc1ccc(O)cc1)NC(=O)[C@@H](NC(=O)[C@H](CCCN=C(N)N)NC(=O)CNC)C(C)C)C(=O)O | 50 | 7.5 |  | pA2 (Oryctolagus cuniculus [1]): 7.25 |
| CC[C@H](C)[C@H](NC(=O)[C@@H]1CCCN1C(=O)[C@H](Cc1c[nH]cn1)NC(=O)[C@H](Cc1c[nH]cn1)NC(=O)[C@H](Cc1ccc(O)cc1)NC(=O)[C@@H](NC(=O)[C@H](CCCN=C(N)N)NC(=O)CNC)C(C)C)C(=O)O | 5 | 10 |  | pA2 (Oryctolagus cuniculus [1]): 9 |
| CC[C@H](C)[C@H](NC(=O)[C@@H]1CCCN1C(=O)[C@H](Cc1c[nH]cn1)NC(=O)[C@H](Cc1ccc(O)cc1)NC(=O)[C@H](Cc1ccc(O)cc1)NC(=O)[C@@H](NC(=O)[C@H](CCCN=C(N)N)NC(=O)CNC)C(C)C)C(=O)O | 50 | 2.5 |  | pA2 (Oryctolagus cuniculus [1]): 9.6 |
| CC[C@H](C)[C@H](NC(=O)[C@@H]1CCCN1C(=O)[C@H](Cc1c[nH]cn1)NC(=O)[C@H](NC(=O)[C@H](Cc1ccc(O)cc1)NC(=O)[C@@H](NC(=O)[C@H](CCCN=C(N)N)NC(=O)CNC)C(C)C)c1ccccc1)C(=O)O | 5.5 | 8.5 |  | pA2 (Oryctolagus cuniculus [1]): 9 |
| CC[C@H](C)[C@H](NC(=O)[C@@H]1CCCN1C(=O)[C@H](Cc1c[nH]cn1)NC(=O)[C@H](CCC(=O)O)NC(=O)[C@H](Cc1ccc(O)cc1)NC(=O)[C@@H](NC(=O)[C@H](CCCN=C(N)N)NC(=O)CNC)C(C)C)C(=O)O | 100 |  |  | pA2 [4]: 9; BP (Rattus norvegicus [5]): 2 mmHg |
| CC[C@H](C)[C@H](NC(=O)[C@@H]1CCCN1C(=O)[C@H](Cc1c[nH]cn1)NC(=O)[C@@H](NC(=O)[C@H](Cc1ccc(O)cc1)NC(=O)[C@@H](NC(=O)[C@H](CCCN=C(N)N)NC(=O)CNC)C(C)C)[C@@H](C)CC)C(=O)O |  |  |  | pA2 (Oryctolagus cuniculus [6]): 9.1; ID50 (Rattus norvegicus [7]): 10 ng min-1 rat-1; BP [8]: 10.2 mmHg |
| CO[C@H](C)[C@H](NC(=O)[C@H](Cc1ccc(O)cc1)NC(=O)[C@@H](NC(=O)[C@H](CCCN=C(N)N)NC(=O)[C@@H](N)CC(N)=O)C(C)C)C(=O)N[C@@H](Cc1c[nH]cn1)C(=O)N1CCC[C@H]1C(=O)N[C@@H](Cc1ccccc1)C(=O)O (H-NRVYT(Me)HPF-OH) |  |  | 118 |  |
| CC[C@H](NC(=O)[C@H](Cc1ccc(O)cc1)NC(=O)[C@@H](NC(=O)[C@H](CCCN=C(N)N)NC(=O)[C@@H](N)CC(N)=O)C(C)C)C(=O)N[C@@H](Cc1c[nH]cn1)C(=O)N1CCC[C@H]1C(=O)N[C@@H](Cc1ccccc1)C(=O)O (H-NRVY[Abu]HPF-OH) |  |  | 16 |  |
| CC(C)[C@H](NC(=O)[C@H](CCCN=C(N)N)NC(=O)[C@@H](N)CC(N)=O)C(=O)N[C@@H](Cc1ccc(O)cc1)C(=O)N[C@H](C(=O)N[C@@H](Cc1c[nH]cn1)C(=O)N1CCC[C@H]1C(=O)N[C@@H](Cc1ccccc1)C(=O)O)C1CCCCC1 (H-NRVY[Chg]HPF-OH) |  |  | 114 |  |
| CC(C)[C@H](NC(=O)[C@H](CCCN=C(N)N)NC(=O)[C@@H](N)CC(N)=O)C(=O)N[C@@H](Cc1ccc(O)cc1)C(=O)N[C@H](C(=O)N[C@@H](Cc1c[nH]cn1)C(=O)N1CCC[C@H]1C(=O)N[C@@H](Cc1ccccc1)C(=O)O)C1CCCC1 (H-NRVY[Gly(cPent)]HPF-OH) |  |  | 89 |  |
| CCCC[C@H](NC(=O)[C@H](Cc1ccc(O)cc1)NC(=O)[C@@H](NC(=O)[C@H](CCCN=C(N)N)NC(=O)[C@@H](N)CC(N)=O)C(C)C)C(=O)N[C@@H](Cc1c[nH]cn1)C(=O)N1CCC[C@H]1C(=O)N[C@@H](Cc1ccccc1)C(=O)O (H-NRVY[Nle]HPF-OH) |  |  | 21 |  |
| CC[C@H](C)[C@H](NC(=O)[C@@H]1CCCN1C(=O)[C@H](Cc1c[nH]cn1)NC(=O)[C@H](C)NC(=O)[C@H](Cc1ccc(O)cc1)NC(=O)[C@@H](NC(=O)[C@H](CCCN=C(N)N)NC(=O)CNC)C(C)C)C(=O)O (H-[Sar]RVYAHPI-OH) | 50 |  |  | pA2 [10]: 7.5; BP (Rattus norvegicus [5]): 5 mmHg |
| CC[C@H](C)[C@H](NC(=O)[C@@H]1CCCN1C(=O)[C@H](Cc1c[nH]cn1)NC(=O)[C@H](Cc1ccccc1)NC(=O)[C@H](Cc1ccc(O)cc1)NC(=O)[C@@H](NC(=O)[C@H](CCCN=C(N)N)NC(=O)CNC)C(C)C)C(=O)O (H-[Sar]RVYFHPI-OH) | 100 | 7.5 |  | pA2 (Oryctolagus cuniculus [1]): 9.15 |
| CC[C@H](C)[C@H](NC(=O)[C@@H]1CCCN1C(=O)[C@H](Cc1c[nH]cn1)NC(=O)[C@H](CCCCN)NC(=O)[C@H](Cc1ccc(O)cc1)NC(=O)[C@@H](NC(=O)[C@H](CCCN=C(N)N)NC(=O)CNC)C(C)C)C(=O)O (H-[Sar]RVYKHPI-OH) | 50 |  |  | pA2 [4]: 8.7; BP (Rattus norvegicus [5]): 10 mmHg |
| CC[C@H](C)[C@H](NC(=O)[C@@H]1CCCN1C(=O)[C@H](Cc1c[nH]cn1)NC(=O)[C@@H]1CCCN1C(=O)[C@H](Cc1ccc(O)cc1)NC(=O)[C@@H](NC(=O)[C@H](CCCN=C(N)N)NC(=O)CNC)C(C)C)C(=O)O (H-[Sar]RVYPHPI-OH) |  |  |  | pA2 (Oryctolagus cuniculus [6]): 8.7; BP (Rattus norvegicus [5]): 7 mmHg |
| CC[C@H](C)[C@H](NC(=O)[C@@H]1CCCN1C(=O)[C@H](Cc1c[nH]cn1)NC(=O)[C@H](CCCN=C(N)N)NC(=O)[C@H](Cc1ccc(O)cc1)NC(=O)[C@@H](NC(=O)[C@H](CCCN=C(N)N)NC(=O)CNC)C(C)C)C(=O)O (H-[Sar]RVYRHPI-OH) | 15 | 10 |  | pA2 (Oryctolagus cuniculus [1]): 9 |
| CC[C@H](C)[C@H](NC(=O)[C@@H]1CCCN1C(=O)[C@H](Cc1c[nH]cn1)NC(=O)[C@@H](NC(=O)[C@H](Cc1ccc(O)cc1)NC(=O)[C@@H](NC(=O)[C@H](CCCN=C(N)N)NC(=O)CNC)C(C)C)[C@@H](C)OC)C(=O)O (H-[Sar]RVYT(Me)HPI-OH) |  |  |  | BP (Rattus norvegicus [5]): 7.5 mmHg; pA2 (Oryctolagus cuniculus [11]): 9.7 |
| CCCC[C@H](NC(=O)[C@H](Cc1ccc(O)cc1)NC(=O)[C@@H](NC(=O)[C@H](CCCN=C(N)N)NC(=O)CNC)C(C)C)C(=O)N[C@@H](Cc1c[nH]cn1)C(=O)N1CCC[C@H]1C(=O)N[C@H](C(=O)O)[C@@H](C)CC (H-[Sar]RVY[Nle]HPI-OH) | 20 |  |  | pA2 [4]: 8.85; BP (Rattus norvegicus [5]): 20 mmHg |
| CNCC(=O)N[C@@H](CCCN=C(N)N)C(=O)N[C@H](C(=O)N[C@@H](Cc1ccc(O)cc1)C(=O)N[C@H](C(=O)N[C@@H](Cc1c[nH]cn1)C(=O)N1CCC[C@H]1C(=O)N[C@@H](Cc1ccccc1)C(=O)O)C(C)(C)SC)C(C)C (H-[Sar]RVY[Pen](Me)HPF-OH) |  | 60 |  |  |
| CC[C@H](C)[C@H](NC(=O)[C@@H]1CCCN1C(=O)[C@H](Cc1c[nH]cn1)NC(=O)[C@@H](NC(=O)[C@H](Cc1ccc(O)cc1)NC(=O)[C@@H](NC(=O)[C@H](CCCN=C(N)N)NC(=O)CNC)C(C)C)C(C)(C)SC)C(=O)O (H-[Sar]RVY[Pen](Me)HPI-OH) | 20 |  |  | pA2 [4]: 9; BP (Rattus norvegicus [5]): 12.5 mmHg |
| CC[C@H](C)[C@H](NC(=O)[C@@H]1CCCN1C(=O)[C@H](Cc1c[nH]cn1)NC(=O)[C@H]1N(C(=O)[C@H](Cc2ccc(O)cc2)NC(=O)[C@@H](NC(=O)[C@H](CCCN=C(N)N)NC(=O)CNC)C(C)C)CSC1(C)C)C(=O)O (H-[Sar]RVY[Thz(5,5-Me2)]HPI-OH) | 25 |  |  | pA2 [4]: 9; BP (Rattus norvegicus [5]): 11.4 mmHg |
| CC[C@H](C)[C@H](NC(=O)[C@@H]1CCCN1C(=O)[C@H](Cc1c[nH]cn1)NC(=O)[C@@H](NC(=O)[C@H](Cc1ccc(O)cc1)NC(=O)[C@@H](NC(=O)[C@H](CCCN=C(N)N)NC(=O)CNC)C(C)C)C(C)c1ccccc1)C(=O)O (some centres not stated) (H-[Sar]RVY[X1]HPI-OH) | 7.5 | 10 |  | pA2 (Oryctolagus cuniculus [1]): 9.3 |
| CNCC(=O)N[C@@H](CCCN=C(N)N)C(=O)N[C@H](C(=O)N[C@@H](Cc1ccc(O)cc1)C(=O)N1CSC(C)(C)[C@@H]1C(=O)N[C@@H](Cc1c[nH]cn1)C(=O)N1CCC[C@H]1C(=O)N[C@@H](Cc1ccccc1)C(=O)O)C(C)C (H-[Sar]RVY[dThz(5,5-Me2)]HPF-OH) |  | 100 |  |  |
| CC[C@H](C)[C@H](NC(=O)[C@@H]1CCCN1C(=O)[C@H](Cc1c[nH]cn1)NC(=O)[C@H](CCc1ccccc1)NC(=O)[C@H](Cc1ccc(O)cc1)NC(=O)[C@@H](NC(=O)[C@H](CCCN=C(N)N)NC(=O)CNC)C(C)C)C(=O)O (H-[Sar]RVY[hPhe]HPI-OH) | 20 | 10 |  | pA2 (Oryctolagus cuniculus [1]): 7.75 |
| H-NRVYAHPF-OH |  |  | 3 |  |
| H-NRVYLHPF-OH |  |  | 25 |  |
| H-NRVYPHPF-OH |  |  |  | Activity (Rattus norvegicus [12]): 10% |
| H-NRVYRHPF-OH |  |  | 0 |  |
| H-NRVYVHPF-OH [ANGIOTENSIN AMIDE] |  |  |  | Activity (Rattus norvegicus [12]): 100% |
| H-NRVYYHPF-OH |  |  | 0 |  |
